Here are results for 4 compounds from paper PMC12538432 (The Journal of Biological Chemistry, 2025).

One may read the half-life as how long it takes for the measured level to halve.

Structures are written as SMILES.

One data set has as its target T1, WT CYP3A4 (Homo sapiens, UniProt P08684).
T1 construct: made in house
Nature of the data set: Equilibrium spectral binding titration of WT CYP3A4. To be noted: for Spectral changes / low-to-high spin transition induced: WT CYP3A4, saturating ligand; for Spectral ligand type: WT CYP3A4, Soret band shift. Here is the method: (§1) Fitting was performed using SigmaPlot software (Grafiti LLC).

For another data set, the target named is T2, CYP3A4 R212A (Homo sapiens, UniProt P08684, R212A).
T2 construct: made in house
T2 sequence (P08684 with tags, fused parts or gaps R212A): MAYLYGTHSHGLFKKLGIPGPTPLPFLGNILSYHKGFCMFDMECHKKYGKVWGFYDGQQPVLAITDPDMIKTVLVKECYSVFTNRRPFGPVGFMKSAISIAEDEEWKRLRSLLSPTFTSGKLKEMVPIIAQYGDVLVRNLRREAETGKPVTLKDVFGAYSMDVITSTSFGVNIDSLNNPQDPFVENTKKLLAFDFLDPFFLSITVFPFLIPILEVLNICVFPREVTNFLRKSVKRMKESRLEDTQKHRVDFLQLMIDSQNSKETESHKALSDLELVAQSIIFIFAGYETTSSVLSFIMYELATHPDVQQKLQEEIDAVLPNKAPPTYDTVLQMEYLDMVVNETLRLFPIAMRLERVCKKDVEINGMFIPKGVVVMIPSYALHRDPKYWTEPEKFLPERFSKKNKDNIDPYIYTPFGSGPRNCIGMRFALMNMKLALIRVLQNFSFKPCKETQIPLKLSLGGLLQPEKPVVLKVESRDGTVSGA
Nature of the data set: Equilibrium spectral binding titration of CYP3A4 R212A mutant. As for the experimental part:
as §1

Another data set concerns the target CYP3A4 S119A (Homo sapiens, UniProt P08684, S119A). Nature of the data set: biochemical.
The conditions of data set [1]: upon intravenous and immediate-release oral administration ref 32; cited from earlier work.
Another data set concerns the target T3, CYP3A4 (wild type) (Homo sapiens, UniProt P08684).
T3 construct: made in house
The data set is described as follows: Equilibrium spectral binding titration of WT CYP3A4. The settings on record: human, recombinant Δ3-22 truncated wild-type CYP3A4 protein, pH 7.4; WT CYP3A4, second of two binding sites; read-out: Kd2 (two-site binding fitting). Here is the method: as §1

T1 sequence (P08684 with tags, fused parts or gaps): as the sequence (P08684 with tags, fused parts or gaps R212A) above, with A192R counted along it
T3 sequence (P08684 with tags, fused parts or gaps): as the sequence (P08684 with tags, fused parts or gaps R212A) above, with A192R counted along it
Sequence of CYP3A4 S119A (P08684 with tags, fused parts or gaps S119A): as the sequence (P08684 with tags, fused parts or gaps R212A) above, with S99A, A192R counted along it

For `CCCCCc1cc(O)c2c(c1)OC(C)(C)c1ccc(C)cc1-2` [CBN, cannabinol], the “Spectral changes / low-to-high spin transition induced” value at WT CYP3A4 was “only minor spectral changes”; on WT CYP3A4 (listed as cannabinol), “only negligible spectral changes”.
As for `CCCCCc1cc(O)c2c(c1)OC(C)(C)[C@@H]1CCC(C)=C[C@@H]21` [THC, (−)-trans-Δ^9-tetrahydrocannabinol], at CYP3A4 R212A, the Kd is 2.8 ± 0.3 µM. The compound further yielded a Kd on CYP3A4 S119A of 3 ± 0.3 µM. On WT CYP3A4, the Kd was 1.9 µM, the Spectral ligand type entry was “type I ligand” and the “Spectral changes / low-to-high spin transition induced” value is given as “nearly complete low-to-high spin transition”.
On to `C=C(C)[C@@H]1CCC(C)=C[C@H]1c1c(O)cc(CCCCC)cc1O` [CBD, cannabidiol], for which, on WT CYP3A4, the Spectral ligand type entry is “type I spectral changes” and the “Spectral changes / low-to-high spin transition induced” value is “nearly complete high-spin transition”. For the same compound, the Spectral ligand type entry on WT CYP3A4 (listed as cannabidiol) is “type I ligands”.
For `NC(=O)C(c1ccccc1)(c1ccccc1)[C@@H]1CCN(CCc2ccc3c(c2)CCO3)C1` [darifenacin], the half-life in data set [1] is 3 to 4 h. On WT CYP3A4, the Spectral ligand type entry was “type I ligand”. On WT CYP3A4 (WT CYP3A4, share of total absorbance change), the “Observed absorbance change during association to the high-affinity site” value is on record as around 70%. The Kd at CYP3A4 (wild type) stood at 712 µM.
